Legend:
Type in all cases: physicochemical
[1] = Maximum loading capacity of DEB with Doxorubicin and Mitoxantrone; settings: beads 700-900 μm
Protocol: Microspheres of the invention were prepared as described in the Reference Example. Sample beads of the size range 700-900 μm were loaded by immersing the beads in aqueous solutions of Doxorubicin HCl (Dox) and Mitoxantrone 2HCl (Mitox). Loading was monitored using UV-visible spectroscopy at the respective wavelengths for absorption maxima of the two drugs (483 nm and 660 nm respectively). The beads were sized and imaged using an Olympus BX50F4 microscope with a Colorview III camcorder. Compressibility was measured using an Instron 4411 with a 50 N load cell.

[2] = Elution from irinotecan lyophilised microspheres into PBS buffer
Text: Irinotecan was eluted from lyophilised microspheres with different loadings of camptothecin into PBS buffer. The elution rate slowed down after lyophilisation when compared with the non-lyophilised samples. […] Drug-loaded beads were lyophilised to removed water and sterilised using gamma irradiation.

[3] = Irinotecan loading capacity of microspheres (depletion method, UV 369 nm); settings: microspheres 500-700 μm, irinotecan solution 20 mg/ml, at least 4 hours
Protocol: Irinotecan-loading content and loading efficacy was determined using microspheres, 500-700 μm. A bead slurry was mixed with irinotecan solution (20 mg/ml) in calculated amount, rotating-mixed for at least 4 hours. The solution was measured with UV at 369 nm to determine the irinotecan concentration and the drug-loading in beads (by depletion method). […] Above this the loading efficacy dropped remarkably, indicating saturation of the beads.

[4] = AQ4 and AQ4N loading profile and maximum loading capacity of DC Bead; settings: DC Bead 500-700 μm; AQ4N target loading 60 mg/mL, 20 hr
[5] = Elution of doxorubicin from high AMPS microspheres into distilled water
Protocol: High AMPS microspheres were loaded with various concentrations of doxorubicin and the microspheres eluted into 250 ml of distilled water (FIG. 2).
For the higher drug loadings, a burst effect is evident in the first few minutes, followed by a prolonged period of slower release. It is surmised that the burst represents the free drug eluting from the water held within the microspheres, whereas the prolonged elution results from the drug that is “bound” into the spheres essentially by ionic interaction between the charged groups. For the highest loading of drug (from the 20 mg/ml loading solution), the burst effect represents some 45% of the total drug loading of the spheres, the remainder taking several days to completely elute from the carrier. Studies have shown that 100% of the drug is eventually eluted from the microspheres. Drug-loaded beads were lyophilised to remove water and sterilised using gamma irradiation.

SMILES | Average (mg) of drug per mL of beads (average maximum capacity of DEB) [1] | Mols of loaded drug/Mols of available binding sites [1] | Average (mg) of drug per mL of beads (average maximum capacity of DEB) ([1]; listed as Mitox) | elution rate after lyophilisation compared with non-lyophilised samples [2] | concentration range in which irinotecan content in beads increased linearly with loading amount (above it saturation of the beads) [3] | maximum loading capacity in DC Bead [4] | drug eluting at 3 hours ([5]; 133.2 μg/ml and 2 mg/ml loaded microspheres, 250 ml distilled water) | drug eventually eluted from the microspheres ([5]; high AMPS microspheres) | burst effect as share of the total drug loading of the spheres ([5]; high AMPS microspheres, highest loading (20 mg/ml loading solution), 250 ml distilled water, first few minutes)
O=C1c2c(O)ccc(O)c2C(=O)c2c(NCCNCCO)ccc(NCCNCCO)c21 [Mitoxantrone] | 20.0 mg per mL of beads | 0.5 | 20 mg per mL of beads | – | – | – | – | – | –
CCc1c2c(nc3ccc(OC(=O)N4CCC(N5CCCCC5)CC4)cc13)-c1cc3c(c(=O)n1C2)COC(=O)[C@]3(O)CC [Irinotecan] | – | – | – | slowed down | below 50 mg/ml | – | – | – | –
COc1cccc2c1C(=O)c1c(O)c3c(c(O)c1C2=O)C[C@@](O)(C(=O)CO)C[C@@H]3O[C@H]1C[C@H](N)[C@H](O)[C@H](C)O1 [Doxorubicin] | 39.0 mg per mL of beads | 0.9 | – | – | – | 40 mg/mL | below the detection limit | 100% | ~45%

— patent publication US8691791B2, “Microspheres for treatment of brain tumors” (Biocompatibles UK Limited, priority 2007, dated 2014)
